Biological target: T1, Vitamin D3 receptor (Homo sapiens, UniProt P11473)
T1 sequence (P11473 whole entry): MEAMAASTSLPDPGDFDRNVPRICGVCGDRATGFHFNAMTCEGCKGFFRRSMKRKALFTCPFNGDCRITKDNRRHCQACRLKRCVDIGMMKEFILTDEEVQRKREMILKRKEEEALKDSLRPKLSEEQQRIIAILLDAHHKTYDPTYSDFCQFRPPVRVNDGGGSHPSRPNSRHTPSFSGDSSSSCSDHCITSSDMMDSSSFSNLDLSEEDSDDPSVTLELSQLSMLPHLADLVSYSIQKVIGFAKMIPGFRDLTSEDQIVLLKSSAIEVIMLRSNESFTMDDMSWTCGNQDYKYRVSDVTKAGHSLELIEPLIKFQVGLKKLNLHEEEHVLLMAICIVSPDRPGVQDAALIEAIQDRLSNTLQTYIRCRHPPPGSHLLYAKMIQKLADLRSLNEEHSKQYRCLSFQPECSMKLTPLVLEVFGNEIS
Assay: Binding affinity to full length human VDR by Competitive binding assay

Question: `C=C1/C(=C\C=C(/C)c2cccc(CCC#CCC(O)(C(F)(F)F)C(F)(F)F)c2)C[C@@H](O)C[C@@H]1O` was tested. Which IC50 did it give?
Answer: Its IC50 is 4.6 nM.

Reference: BindingDB's records for doi:10.1021/acs.jmedchem.3c01371 (University of Santiago De Compostela, 2023)
